Assay results as given in ChEMBL document CHEMBL1201862, “PubChem BioAssay data set” (2004).
Active and inactive are the calls of the source.

Tests used:
[1] = StAR promoter reporter inhibition counter-screen, dose response, counter-screen for LRH-1 inverse agonist project, cell-based, luminescence, luciferase reporter (AID 651969); type: functional
[2] = target: Nuclear receptor subfamily 5 group A member 2 (Homo sapiens, UniProt O00482); type: functional, cell-based;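 further: HEK293T cells transfected with LRH-1 and a StAR promoter luciferase reporter; potency for inhibitors that lower LRH-1 driven reporter light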
Sequence of Nuclear receptor subfamily 5 group A member 2 (O00482 whole entry): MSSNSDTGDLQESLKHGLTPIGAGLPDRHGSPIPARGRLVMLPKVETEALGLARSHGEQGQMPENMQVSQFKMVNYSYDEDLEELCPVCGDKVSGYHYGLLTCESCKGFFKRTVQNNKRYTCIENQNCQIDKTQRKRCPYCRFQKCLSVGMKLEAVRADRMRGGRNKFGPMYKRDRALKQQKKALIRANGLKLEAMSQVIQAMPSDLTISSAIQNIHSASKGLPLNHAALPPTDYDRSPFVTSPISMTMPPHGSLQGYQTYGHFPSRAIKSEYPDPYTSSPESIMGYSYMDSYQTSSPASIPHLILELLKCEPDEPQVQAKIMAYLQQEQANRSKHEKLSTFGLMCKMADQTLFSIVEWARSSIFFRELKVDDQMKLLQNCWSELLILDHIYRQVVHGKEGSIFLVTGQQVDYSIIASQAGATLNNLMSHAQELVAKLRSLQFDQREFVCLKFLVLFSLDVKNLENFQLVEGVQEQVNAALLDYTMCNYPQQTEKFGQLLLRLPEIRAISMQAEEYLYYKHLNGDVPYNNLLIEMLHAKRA

[3] = target: Steroidogenic factor 1 (Homo sapiens, UniProt Q13285); test: Counterscreen for inverse agonists of the liver receptor homolog-1 (LRH-1; NR5A2): Luminescence-based cell-based high throughput dose response assay to identify inverse agonists of the Steroidogenic Factor 1 Nuclear Receptor (SF1; NR5A1).; type: functional
Sequence of Steroidogenic factor 1 (Q13285 whole entry): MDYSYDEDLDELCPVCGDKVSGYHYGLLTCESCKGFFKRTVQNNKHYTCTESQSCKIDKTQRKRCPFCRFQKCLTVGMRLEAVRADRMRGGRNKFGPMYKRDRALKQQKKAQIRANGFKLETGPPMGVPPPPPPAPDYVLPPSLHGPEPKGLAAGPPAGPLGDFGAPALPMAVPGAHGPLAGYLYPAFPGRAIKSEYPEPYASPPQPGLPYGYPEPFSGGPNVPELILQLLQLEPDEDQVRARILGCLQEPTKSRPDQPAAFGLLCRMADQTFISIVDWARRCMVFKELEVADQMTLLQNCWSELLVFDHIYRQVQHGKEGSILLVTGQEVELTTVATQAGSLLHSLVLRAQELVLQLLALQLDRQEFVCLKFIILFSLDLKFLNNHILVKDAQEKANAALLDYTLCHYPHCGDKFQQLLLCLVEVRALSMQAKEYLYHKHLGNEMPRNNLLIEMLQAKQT

[4] = enhancers of respiration in Yfh1-depleted yeast, dose response, Friedreich's ataxia, plus single-dose screen (AID 1465); type: functional;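 further: yeast depleted of Yfh1p frataxin homolog grown on glycerol needing respiration; WST-1 tetrazolium dye reduction as measure of cellular dehydrogenase metabolic activity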
[5] = system: INS1; test: beta cell apoptosis inhibitors, cytokine rescue, dose response, luminescence, retest (AID 449756); type: functional, cell-based; details: Rattus norvegicus;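 further: cell death triggered by IL-1 beta plus TNF-alpha plus IFN-gamma mixture; protective hits raise ATP signal compared with cytokine alone wells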
[6] = growth suppression of beta-catenin-knockout colon cells, dose response, cell-based, HCT116, human colon tumor (AID 1045); type: functional;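 further: HCT116 colon tumor cells with beta catenin knocked out; cells exposed to compound for 60 hours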
[7] = Counterscreen for AddAB inhibitors: absorbance-based bacterial cell-based high throughput dose response assay for inhibitors of bacterial viability. [Related pubchem assays (depositor defined):AID435030, AID449728, AID449731, AID488942, AID488955, AID488956]; type: functional
[8] = growth suppression of PTEN-null colon cells, dose response, cell-based, HCT116 PTEN knockout (AID 1047); type: functional;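 further: HCT116 colon tumor cells with PTEN knocked out; cells exposed to compound for 60 hours before readout; potency for loss of cell viability measured by luminescence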
[9] = cytotoxicity toward NIH3T3 fibroblasts, dose response, counter-screen, cell-based, ATP luminescence, mouse fibroblasts (AID 2010); type: functional;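 further: cells exposed to compound for about 90 hours before reading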
[10] = Luminescence Cell-Based Dose Confirmation HTS to Identify Inhibitors of Polyadenylation.; type: functional
[11] = NIH-3T3 fibroblast cytotoxicity, dose response, cytotoxicity control, cell-based, fluorescence, Alamar Blue, secondary assay (AID 2327); type: functional;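 further: NIH-3T3 mouse fibroblasts cultured with fluconazole at 8 µg/mL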
[12] = C. albicans growth with fluconazole, confirmation, fluorescence, retest (AID 2467); type: functional, cell-based
[13] = inhibitors of intracellular T. cruzi replication, confirmation, NIH3T3 host cells, beta-gal luminescence (AID 2044); type: functional, cell-based;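 further: intracellular parasites grown in NIH/3T3 mouse fibroblasts as host cells; luminescent beta-galactosidase reporter signal from transgenic T. cruzi replicating inside host cells; inhibitors lower the luminescence signal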
[14] = target: T1, Heat shock factor protein 1 (Mus musculus, UniProt P38532); test: HSF1 potentiators in luciferase reporter cells, confirmation, cell-based, NIH3T3, luminescence, dose retest (AID 435004); type: functional;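 further: stress induced by proteasome inhibitor MG132 added 30 min after compound; luciferase reporter driven by HSF1 response element in NIH3T3 cells; actives raise luminescence as potentiators of the MG132 stress response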
T1 sequence (P38532 whole entry): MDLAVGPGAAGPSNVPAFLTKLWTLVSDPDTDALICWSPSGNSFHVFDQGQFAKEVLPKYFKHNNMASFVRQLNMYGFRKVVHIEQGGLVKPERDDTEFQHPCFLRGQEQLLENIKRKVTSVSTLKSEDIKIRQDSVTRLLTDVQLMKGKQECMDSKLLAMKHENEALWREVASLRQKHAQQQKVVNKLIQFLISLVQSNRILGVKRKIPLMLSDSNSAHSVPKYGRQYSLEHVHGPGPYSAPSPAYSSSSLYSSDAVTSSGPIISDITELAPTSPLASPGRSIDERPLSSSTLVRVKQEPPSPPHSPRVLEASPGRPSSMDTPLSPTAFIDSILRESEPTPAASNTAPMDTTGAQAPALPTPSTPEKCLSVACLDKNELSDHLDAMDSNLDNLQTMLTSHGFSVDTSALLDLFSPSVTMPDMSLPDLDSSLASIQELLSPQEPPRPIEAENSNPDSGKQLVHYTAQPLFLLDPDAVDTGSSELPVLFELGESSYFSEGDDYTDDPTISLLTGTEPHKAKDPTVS

[15] = target: Procathepsin L (Homo sapiens, UniProt P07711); test: cathepsin L inhibitors, dose response, counter-screen for M1/M17 aminopeptidase inhibitor project, biochemical, QFRET, 1536-well (AID 2214)
Sequence of Procathepsin L (P07711 whole entry): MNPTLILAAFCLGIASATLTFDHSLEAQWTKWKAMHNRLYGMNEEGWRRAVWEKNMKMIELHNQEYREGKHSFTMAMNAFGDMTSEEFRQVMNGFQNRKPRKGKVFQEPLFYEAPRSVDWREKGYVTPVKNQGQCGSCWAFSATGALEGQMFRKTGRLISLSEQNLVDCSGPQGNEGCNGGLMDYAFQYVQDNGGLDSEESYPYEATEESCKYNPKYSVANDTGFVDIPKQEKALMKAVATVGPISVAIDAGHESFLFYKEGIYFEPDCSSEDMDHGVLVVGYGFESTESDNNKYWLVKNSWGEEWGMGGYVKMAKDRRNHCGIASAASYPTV

[16] = target: Aspartyl aminopeptidase (Plasmodium falciparum 3D7, UniProt Q8I2J3); test: Counterscreen for inhibitors of M1 and M17 aminopeptidases: QFRET-based biochemical high throughput dose response assay for inhibitors of the Plasmodium falciparum M18 Aspartyl Aminopeptidase (PFM18AAP). [Related PubChem assays: 1619 (Screening assay (M17LAP inhibitors).), 1445 (Screening assay (M1AAP inhibitors).)]
Sequence of Aspartyl aminopeptidase (Q8I2J3 whole entry): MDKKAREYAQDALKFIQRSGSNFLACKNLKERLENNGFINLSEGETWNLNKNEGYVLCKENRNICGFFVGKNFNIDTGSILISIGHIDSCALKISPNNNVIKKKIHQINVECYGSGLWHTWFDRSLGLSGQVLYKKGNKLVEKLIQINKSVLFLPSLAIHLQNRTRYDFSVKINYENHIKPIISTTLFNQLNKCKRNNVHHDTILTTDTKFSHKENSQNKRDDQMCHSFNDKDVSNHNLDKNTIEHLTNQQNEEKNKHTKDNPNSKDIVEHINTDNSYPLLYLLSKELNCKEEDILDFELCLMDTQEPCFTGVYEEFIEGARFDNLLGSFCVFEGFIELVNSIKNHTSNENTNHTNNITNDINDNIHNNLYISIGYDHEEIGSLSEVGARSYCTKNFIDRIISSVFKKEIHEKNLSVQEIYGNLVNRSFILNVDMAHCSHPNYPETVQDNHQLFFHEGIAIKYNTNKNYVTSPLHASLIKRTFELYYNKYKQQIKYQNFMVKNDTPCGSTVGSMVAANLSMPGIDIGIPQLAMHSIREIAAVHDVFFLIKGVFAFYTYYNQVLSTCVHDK

[17] = target: T2, Protein RecA (Mycobacterium tuberculosis, UniProt P9WHJ3); test: Fluorescence Cell-Free Homogeneous Dose Retest to Identify Inhibitors of RecA-Intein Splicing Activity. [Related pubchem assays (depositor defined):AID2097, AID2223, AID489010, AID492950]; type: functional
T2 sequence (P9WHJ3 whole entry): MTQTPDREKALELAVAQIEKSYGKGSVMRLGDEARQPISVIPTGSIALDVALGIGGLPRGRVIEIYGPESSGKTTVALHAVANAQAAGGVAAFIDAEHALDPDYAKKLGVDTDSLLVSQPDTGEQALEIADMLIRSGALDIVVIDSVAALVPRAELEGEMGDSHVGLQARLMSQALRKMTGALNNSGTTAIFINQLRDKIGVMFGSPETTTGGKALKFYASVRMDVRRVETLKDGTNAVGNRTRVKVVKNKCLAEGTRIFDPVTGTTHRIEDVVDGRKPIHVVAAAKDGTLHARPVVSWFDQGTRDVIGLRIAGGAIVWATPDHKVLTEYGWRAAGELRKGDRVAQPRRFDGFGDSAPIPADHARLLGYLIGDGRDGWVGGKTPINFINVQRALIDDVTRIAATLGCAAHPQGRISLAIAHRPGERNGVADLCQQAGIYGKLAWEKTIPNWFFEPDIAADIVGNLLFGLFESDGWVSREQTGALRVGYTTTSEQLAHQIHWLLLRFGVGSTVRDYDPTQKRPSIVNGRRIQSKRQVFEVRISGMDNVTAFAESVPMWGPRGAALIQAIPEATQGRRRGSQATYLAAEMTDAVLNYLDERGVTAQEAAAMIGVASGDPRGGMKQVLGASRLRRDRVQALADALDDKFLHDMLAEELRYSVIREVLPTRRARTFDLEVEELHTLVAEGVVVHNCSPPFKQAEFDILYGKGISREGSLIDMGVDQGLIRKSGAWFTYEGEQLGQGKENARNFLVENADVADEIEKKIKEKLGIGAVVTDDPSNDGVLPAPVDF

[18] = target: T3, Leucine aminopeptidase (Plasmodium falciparum 3D7, UniProt Q8IL11); test: P. falciparum M17LAP inhibitors, primary screen, biochemical, fluorogenic H-Leu-NHMec substrate, 1536-well (AID 1619); type: functional
T3 sequence (Q8IL11 whole entry): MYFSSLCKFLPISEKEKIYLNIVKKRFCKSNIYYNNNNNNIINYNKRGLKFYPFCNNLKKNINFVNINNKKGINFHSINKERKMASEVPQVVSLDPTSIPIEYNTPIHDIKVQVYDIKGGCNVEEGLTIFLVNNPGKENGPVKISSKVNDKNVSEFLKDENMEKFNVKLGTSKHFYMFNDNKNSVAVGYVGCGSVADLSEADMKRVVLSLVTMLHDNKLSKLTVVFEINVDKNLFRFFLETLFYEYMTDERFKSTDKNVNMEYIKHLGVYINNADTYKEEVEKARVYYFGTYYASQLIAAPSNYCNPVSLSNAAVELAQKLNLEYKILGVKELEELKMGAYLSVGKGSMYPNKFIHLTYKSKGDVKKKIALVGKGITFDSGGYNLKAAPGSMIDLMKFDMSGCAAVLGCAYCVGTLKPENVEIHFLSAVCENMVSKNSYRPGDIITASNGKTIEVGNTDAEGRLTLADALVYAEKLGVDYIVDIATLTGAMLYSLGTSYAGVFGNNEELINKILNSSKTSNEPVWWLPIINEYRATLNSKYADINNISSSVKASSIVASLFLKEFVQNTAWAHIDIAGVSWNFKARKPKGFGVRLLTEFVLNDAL

[19] = target: T4, Replicative DNA helicase DnaB (Mycobacterium tuberculosis, UniProt P9WMR3); test: DnaB intein splicing inhibitors, dose response, biochemical, cell-free fluorescence (AID 449749); type: functional
T4 sequence (P9WMR3 whole entry): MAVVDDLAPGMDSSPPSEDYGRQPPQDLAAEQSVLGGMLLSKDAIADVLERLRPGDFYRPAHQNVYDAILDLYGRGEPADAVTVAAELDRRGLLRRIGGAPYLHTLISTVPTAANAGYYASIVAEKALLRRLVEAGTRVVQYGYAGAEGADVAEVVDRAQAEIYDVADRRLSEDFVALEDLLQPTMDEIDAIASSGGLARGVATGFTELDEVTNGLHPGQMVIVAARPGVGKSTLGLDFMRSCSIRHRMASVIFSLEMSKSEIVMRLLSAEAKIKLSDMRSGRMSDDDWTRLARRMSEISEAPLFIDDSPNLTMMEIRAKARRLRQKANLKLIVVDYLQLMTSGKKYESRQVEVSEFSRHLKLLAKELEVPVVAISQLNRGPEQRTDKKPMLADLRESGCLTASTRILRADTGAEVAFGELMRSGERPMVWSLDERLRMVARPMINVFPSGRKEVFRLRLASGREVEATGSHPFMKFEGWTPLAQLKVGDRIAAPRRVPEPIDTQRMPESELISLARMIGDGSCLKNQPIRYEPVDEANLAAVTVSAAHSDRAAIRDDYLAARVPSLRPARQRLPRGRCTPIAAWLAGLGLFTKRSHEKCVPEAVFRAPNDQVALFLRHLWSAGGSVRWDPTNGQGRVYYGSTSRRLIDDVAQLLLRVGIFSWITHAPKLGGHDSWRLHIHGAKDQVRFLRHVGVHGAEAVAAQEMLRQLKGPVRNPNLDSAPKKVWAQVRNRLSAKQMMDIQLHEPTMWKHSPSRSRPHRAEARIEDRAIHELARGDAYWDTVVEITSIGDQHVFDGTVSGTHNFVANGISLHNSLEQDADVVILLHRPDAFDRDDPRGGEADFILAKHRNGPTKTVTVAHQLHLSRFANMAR

In the case of CC1CC(C)CN(c2cc(N(C)CCO)c([N+](=O)[O-])c3nonc23)C1 (centres undefined), the IC50 [1] is reported as 35.9 µM (inactive), the IC50 [2] is reported as 6.21 µM (active) and the IC50 [3] is reported as 2.15 µM (active). The EC50 [4] was > 100 µM (active).

For Cc1ccc2[nH]c(/C(C#N)=C\c3ccc([N+](=O)[O-])o3)nc2c1, the AC50 [5] was 1.92 µM (active), the EC50 [6] was 1.04 µM (active) and the IC50 [7] was > 119 µM (inactive). The EC50 [8] was 1.02 µM (active), the EC50 [9] was > 60 µM (not active) and the EC50 [10] was 5.85 µM (active). The EC50 [11] was 3.01 µM (inconclusive), the EC50 [12] was 0.387 µM (active) and the EC50 [13] was 0.604 µM (active).

In the case of Oc1cc(-c2ccc(Cl)c(Cl)c2)[nH]n1, the EC50 [14] is reported as > 260 µM (inactive), the IC50 [15] is reported as > 59.6 µM (not active) and the IC50 [16] is reported as > 73.5 µM (not active). For the same compound, the EC50 [17] was 0.852 µM (active), the IC50 [18] was < 1 µM (active) and the AC50 [19] was 2.01 µM (active).
